Laboratory results as given in US9650361B2, “N-(pyridin-2-yl)pyrimidin-4-amine derivatives containing a sulfoximine group” (BAYER PHARAM AKTIENGESELLSCHAFT, priority 2012, dated 2017).
Where two headings read alike, the source gives them in different places.

Key:
[1] = molecular target: T1, CDK9/CycT1 (Homo sapiens, UniProt P50750); experiment: CDK9/CycT1 high ATP kinase assay (Method 1b); format: biochemical; details: 2 mM ATP
T1 construct: Recombinant full-length His-tagged human CDK9 and CycT1; His; purchased Invitrogen PV4131; host or cells: insect cells
Procedure: 1b. CDK9/CycT1 High ATP Kinase Assay
CDK9/CycT1-inhibitory activity of compounds of the present invention at a high ATP concentration after preincubation of enzyme and test compounds was quantified employing the CDK9/CycT1 TR-FRET assay as described in the following paragraphs.
Recombinant full-length His-tagged human CDK9 and CycT1, expressed in insect cells and purified by Ni-NTA affinity chromatography, were purchase from Invitrogen (Cat. No PV4131). As substrate for the kinase reaction biotinylated peptide biotin-Ttds-YISPLKSPYKISEG (C-terminus in amid form) was used which can be purchased e.g. form the company JERINI peptide technologies (Berlin, Germany).
For the assay 50 nl of a 100 fold concentrated solution of the test compound in DMSO was pipetted into a black low volume 384 well microtiter plate (Greiner Bio-One, Frickenhausen, Germany), 2 μl of a solution of CDK9/CycT1 in aqueous assay buffer [50 mM Tris/HCl pH 8.0, 10 mM MgCl2, 1.0 mM dithiothreitol, 0.1 mM sodium ortho-vanadate, 0.01% (v/v) Nonidet-P40 (Sigma)] were added and the mixture was incubated for 15 min at 22° C. to allow pre-binding of the test compounds to the enzyme before the start of the kinase reaction. Then the kinase reaction was started by the addition of 3 μl of a solution of adenosine-tri-phosphate (ATP, 3.3 mM=>final conc. in the 5 μl assay volume is 2 mM) and substrate (1.67 μM=>final conc. in the 5 μl assay volume is 1 μM) in assay buffer and the resulting mixture was incubated for a reaction time of 25 min at 22° C. The concentration of CDK9/CycT1 was adjusted depending of the activity of the enzyme lot and was chosen appropriate to have the assay in the linear range, typical concentrations were in the range of 0.5 μg/ml. The reaction was stopped by the addition of 5 μl of a solution of TR-FRET detection reagents (0.2 μM streptavidine-XL665 [Cisbio Bioassays, Codolet, France] and 1 nM anti-RB(pSer807/pSer811)-antibody from BD Pharmingen [#558389] and 1.2 nM LANCE EU-W1024 labeled anti-mouse IgG antibody [Perkin-Elmer, product no. AD0077]) in an aqueous EDTA-solution (100 mM EDTA, 0.2% (w/v) bovine serum albumin in 100 mM HEPES/NaOH pH 7.0).
The resulting mixture was incubated 1 h at 22° C. to allow the formation of complex between the phosphorylated biotinylated peptide and the detection reagents. Subsequently the amount of phosphorylated substrate was evaluated by measurement of the resonance energy transfer from the Eu-chelate to the streptavidine-XL. Therefore, the fluorescence emissions at 620 nm and 665 nm after excitation at 350 nm was measured in a HTRF reader, e.g. a Rubystar (BMG Labtechnologies, Offenburg, Germany) or a Viewlux (Perkin-Elmer). The ratio of the emissions at 665 nm and at […] was taken as the measure for the amount of phosphorylated substrate. The data were normalised (enzyme reaction without inhibitor=0% inhibition, all other assay components but no enzyme=100% inhibition).

[2] = tested on: HeLa cells; experiment: Proliferation assay, HeLa (Method 3); format: cell-based, human; details: 4 days, crystal violet, read-out: Inhibition of HeLa cell proliferation IC50
Procedure: (§1) Cultivated tumour cells (HeLa, human cervical tumour cells, ATCC CCL-2; NCI-H460, human non-small cell lung carcinoma cells, ATCC HTB-177; A2780, human ovarian carcinoma cells, ECACC #93112519; DU 145, hormone-independent human prostate carcinoma cells, ATCC HTB-81; HeLa-MaTu-ADR, multidrug-resistant human cervical carcinoma cells, EPO-GmbH Berlin; Caco-2, human colorectal carcinoma cells, ATCC HTB-37; B16F10, mouse melanoma cells, ATCC CRL-6475) were plated at a density of 5,000 cells/well (DU145, HeLa-MaTu-ADR), 3,000 cells/well (NCI-H460, HeLa), 2,500 cells/well (A2780), 1,500 cells/well (Caco-2), or 1,000 cells/well (B16F10) in a 96-well multititer plate in 200 μL of their respective growth medium supplemented 10% fetal calf serum. After 24 hours, the cells of one plate (zero-point plate) were stained with crystal violet (see below), while the medium of the other plates was replaced by fresh culture medium (200 μl), to which the test substances were added in various concentrations (0 μM, as well as in the range of 0.001-10 μM; the final concentration of the solvent dimethyl sulfoxide was 0.5%). The cells were incubated for 4 days in the presence of test substances. Cell proliferation was determined by staining the cells with crystal violet: the cells were fixed by adding 20 μl/measuring point of an 11% glutaric aldehyde solution for 15 minutes at room temperature. After three washing cycles of the fixed cells with water, the plates were dried at room temperature. The cells were stained by adding 100 μl/measuring point of a 0.1% crystal violet solution (pH 3.0). After three washing cycles of the stained cells with water, the plates were dried at room temperature. The dye was dissolved by adding 100 μl/measuring point of a 10% acetic acid solution. The extinction was determined by photometry at a wavelength of 595 nm. The change of cell number, in percent, was calculated by normalization of the measured values to the extinction values of the zero-point plate (=0%) and the extinction of the untreated (0 μm) cells (=100%). The IC50 values (inhibitory concentration at 50% of maximal effect) were determined by means of a 4 parameter fit.

[3] = tested on: HeLa-MaTu-ADR cells; experiment: Proliferation assay, HeLa-MaTu-ADR (Method 3); format: cell-based, human; details: 4 days, crystal violet, read-out: Inhibition of HeLa-MaTu-ADR cell proliferation IC50
Procedure: as §1

[4] = tested on: NCI-H460 cells; experiment: Proliferation assay, NCI-H460 (Method 3); format: cell-based, human; details: 4 days, crystal violet, read-out: Inhibition of NCI-H460 cell proliferation IC50
Procedure: as §1

[5] = tested on: DU145 cells; experiment: Proliferation assay, DU145 (Method 3); format: cell-based, human; details: 4 days, crystal violet, read-out: Inhibition of DU145 cell proliferation IC50
Procedure: as §1

T1 sequence (P50750 whole entry): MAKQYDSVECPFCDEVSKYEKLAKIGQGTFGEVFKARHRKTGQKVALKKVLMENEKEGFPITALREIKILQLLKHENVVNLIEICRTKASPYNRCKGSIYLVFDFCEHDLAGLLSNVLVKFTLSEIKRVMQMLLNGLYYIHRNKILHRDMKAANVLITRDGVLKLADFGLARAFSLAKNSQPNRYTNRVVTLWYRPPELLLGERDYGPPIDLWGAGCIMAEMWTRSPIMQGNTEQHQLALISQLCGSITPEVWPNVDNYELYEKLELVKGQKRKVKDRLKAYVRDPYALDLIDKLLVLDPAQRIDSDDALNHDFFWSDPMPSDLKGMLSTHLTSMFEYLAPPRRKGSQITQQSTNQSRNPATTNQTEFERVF
T1 sequence (O60563 whole entry partner): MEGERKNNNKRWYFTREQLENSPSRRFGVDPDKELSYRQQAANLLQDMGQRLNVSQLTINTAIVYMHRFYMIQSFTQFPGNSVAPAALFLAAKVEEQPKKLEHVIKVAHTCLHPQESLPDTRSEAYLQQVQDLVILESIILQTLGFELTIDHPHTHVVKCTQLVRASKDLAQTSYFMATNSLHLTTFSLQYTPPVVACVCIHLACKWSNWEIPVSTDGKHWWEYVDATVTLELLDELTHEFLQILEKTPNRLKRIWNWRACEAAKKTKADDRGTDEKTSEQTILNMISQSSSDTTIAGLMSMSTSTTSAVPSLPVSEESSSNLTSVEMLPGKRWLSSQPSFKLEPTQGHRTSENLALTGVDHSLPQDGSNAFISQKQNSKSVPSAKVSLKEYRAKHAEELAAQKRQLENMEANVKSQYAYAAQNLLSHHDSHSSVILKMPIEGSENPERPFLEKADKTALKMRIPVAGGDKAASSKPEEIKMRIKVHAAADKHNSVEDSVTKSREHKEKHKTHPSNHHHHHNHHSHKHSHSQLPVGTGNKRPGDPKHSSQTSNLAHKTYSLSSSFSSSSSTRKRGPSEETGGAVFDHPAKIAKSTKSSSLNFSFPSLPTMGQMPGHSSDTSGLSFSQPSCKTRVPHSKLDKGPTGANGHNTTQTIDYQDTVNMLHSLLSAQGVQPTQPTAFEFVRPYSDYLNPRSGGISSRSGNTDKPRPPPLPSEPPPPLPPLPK

| IC50 [1] [nM] | IC50 [2] [nM] | IC50 ([2]; Homo sapiens, HeLa, 96 h) [nM] | IC50 ([3]; Homo sapiens, 96 h) [nM] | IC50 ([4]; Homo sapiens, NCI-H460, 96 h) [nM] | IC50 ([5]; Homo sapiens, DU-145, 96 h) [nM] | IC50 [3] [nM] | IC50 [4] [nM] | IC50 [5] [nM] | SMILES |
| --- | --- | --- | --- | --- | --- | --- | --- | --- | --- |
| 10 | 850 | – | – | – | – | – | – | – | COc1cc(F)ccc1-c1cc(Nc2cc(CS(C)(=N)=O)ccn2)ncn1 (single isomer, unassigned) [Example 3, 6-(4-Fluoro-2-methoxyphenyl)-N-{4-[(S-methylsulfonimidoyl)methyl]pyridin-2-yl}pyrimidin-4-amine] |
| 3 | – | 60 | 104 | 135 | 88 | – | – | – | COc1cc(F)ccc1-c1cc(Nc2cc(CS(C)(=N)=O)cc(C(F)(F)F)n2)ncn1 (racemic) [Example 10, (rac)-6-(4-Fluoro-2-methoxyphenyl)-N-{4-[(S-methylsulfonimidoyl)methyl]-6-(trifluoromethyl)pyridin-2-yl}pyrimidin-4-amine] |
| 2 | 52 | – | – | – | – | 178 | 193 | 126 | COc1cc(F)ccc1-c1cc(Nc2cc(CS(C)(=N)=O)cc(C)n2)ncn1 (single isomer, unassigned) [Example 9, 6-(4-Fluoro-2-methoxyphenyl)-N-{6-methyl-4-[(S-methylsulfonimidoyl)methyl]pyridin-2-yl}pyrimidin-4-amine] |
| 4 | – | 121 | 217 | 375 | 121 | – | – | – | COc1cc(F)ccc1-c1cc(Nc2cc(CS(C)(=N)=O)cc(C)n2)ncn1 (racemic) [Example 7, (rac)-6-(4-Fluoro-2-methoxyphenyl)-N-{6-methyl-4-[(S-methylsulfonimidoyl)methyl]pyridin-2-yl}pyrimidin-4-amine] |
| 30 | – | 456 | – | – | – | – | – | – | COc1cc(F)ccc1-c1cc(Nc2cc(CS(C)(=N)=O)ccn2)ncn1 (single isomer, unassigned) [Example 2, 6-(4-Fluoro-2-methoxyphenyl)-N-{4-[(S-methylsulfonimidoyl)methyl]pyridin-2-yl}pyrimidin-4-amine] |
| 11 | – | 109 | 97 | 372 | 77 | – | – | – | COc1cc(F)ccc1-c1cc(Nc2cc(CS(C)(=N)=O)cc(Cl)n2)ncn1 (racemic) [Example 4, (rac)-N-{6-Chloro-4-[(S-methylsulfonimidoyl)methyl]pyridin-2-yl}-6-(4-fluoro-2-methoxyphenyl)pyrimidin-4-amine] |
| 9 | – | 104 | 109 | 185 | 105 | – | – | – | COc1cc(F)ccc1-c1cc(Nc2cc(CS(C)(=N)=O)cc(Cl)n2)ncn1 (single isomer, unassigned) [Example 5, N-{6-Chloro-4-[(S-methylsulfonimidoyl)methyl]pyridin-2-yl}-6-(4-fluoro-2-methoxyphenyl)pyrimidin-4-amine] |
| 5 | 104 | – | – | – | – | 111 | 192 | 110 | COc1cc(F)ccc1-c1cc(Nc2cc(CS(C)(=N)=O)cc(Cl)n2)ncn1 (single isomer, unassigned) [Example 6, N-{6-Chloro-4-[(S-methylsulfonimidoyl)methyl]pyridin-2-yl}-6-(4-fluoro-2-methoxyphenyl)pyrimidin-4-amine] |
| 49 | – | 477 | 335 | 638 | 309 | – | – | – | COc1cc(F)ccc1-c1cc(Nc2cc(CS(C)(=N)=O)ccn2)ncn1 (racemic) [Example 1, (rac)-6-(4-Fluoro-2-methoxyphenyl)-N-{4-[(S-methylsulfonimidoyl)methyl]pyridin-2-yl}pyrimidin-4-amine] |
| 6 | 118 | – | 112 | 319 | 179 | – | – | – | COc1cc(F)ccc1-c1cc(Nc2cc(CS(C)(=N)=O)cc(C)n2)ncn1 (single isomer, unassigned) [Example 8, 6-(4-Fluoro-2-methoxyphenyl)-N-{6-methyl-4-[(S-methylsulfonimidoyl)methyl]pyridin-2-yl}pyrimidin-4-amine] |
